Holding throughout (assay type): cell-based
Data set [1] deals with T1, MRP1 (Homo sapiens, UniProt P33527).
T1 construct: expressed in transfected cells; host or cells: BHK-21 (ATCC CCL-10) with MRP1 in pcDNA3.1; HEK-293 transfected with ABCC1 in pcDNA3.1 is also described
Briefly: Flow cytometry, inhibition of daunorubicin efflux in cells transfected with MRP1. The settings on record: human, probe daunorubicin, 10 μM compound, read-out: % pump inhibition at 10 μM of compound, MRP1. From the text:
(§1) The HEK-293 human fibroblast line (ATCC cell collection CRL-1573) is transfected with either BCRP (Robey R. W. et al. 2003, Br. J. Cancer 89(10) 1971-1978, [32]) or ABCC1, cloned into the pcDNA3.1 expression vector (Invitrogen), or with the empty pcDNA3.1 vector. The NIH3T3 cell line (ATCC CRL-1658) was stably transfected with pHaMDR1/A (Cardarelli et al. 1995 Cancer Res 55 1086-1091, [33]), which is a retroviral vector that expresses the wild-type MDR1 protein. The BHK-21 cell line (ATCC CCL-10) was transfected with MRP1 cloned into the pcDNA3.1 expression vector, or the empty pcDNA3.1 vector. The cells are maintained in culture in DMEM glutamax II (Invitrogen) supplemented with 10% of fetal bovine serum and 1% of penicillin/streptomycin. The data are processed with Sigmaplot V11 (http://www.systat.com/), and the equation for mathematical adjustment of the experimental data for calculating the IC50 values: f=a×(1−exp(−b×x)) (a=slope, b=intercept on the y-axis).
(§2) The cells expressing P-gp, BCRP and MRP, and their corresponding controls, are placed in the presence of 10 and 2 μM of mitoxantrone for the first two transporters and of 1 μM of daunorubicin for the 3rd. Substrate accumulation is carried out for 30 minutes at 37° C. in the presence or absence of varied concentrations of the molecules tested, at a final DMSO (dimethyl sulfoxide) concentration of 0.5%. After washing with PBS (phosphate buffered saline), the cells are incubated in medium containing the same concentrations of molecules tested as previously, for 1 h at 37° C. The intracellular fluorescence of mitoxantrone and daunorubicin anticancer agent is measured with the FACscan flow cytometer (Becton Dickinson, Mountain, View, Calif.). The drugs are excited at 488 nm. The emission of mitoxantrone is measured at 650 nm, whereas the emission of daunorubicin is measured at 530 nm. The effectiveness of the molecules tested is expressed by equation 1: % effectiveness=100×(FA−FBG)/(FC−FBG), where FA corresponds to the intracellular level of substrate measured in the cells overexpressing ABCG2 (corresponding to the lowest level of fluorescence in the absence of inhibitor), FC corresponds to the fluorescence in the control cells transfected with the empty vector (and therefore to the maximum accumulation of substrate in the cells) and FBG corresponds to the fluorescence measured in the absence of substrate and in the presence of inhibitor.
The inhibitory effect of the compounds is quantified by measuring, by flow cytometry, the efflux of an anticancer drug transported by the pump under consideration, i.e. mitoxantrone for P-gp and BCRP and daunorubicin for MRP1. It is compared with that of the reference product, reversin 121. […]
A general note: Flow cytometry measures light scatter and fluorescence of single cells or particles in a stream.

Data set [2] deals with NIH3T3 cells expressing or not expressing P-gp. Briefly: Cytotoxicity test (MTT), cell survival after 72 h. On the procedure: The cells are seeded in a proportion of 10 000 per well in 96-well plates and incubated for 24 hours at 37° C. under 5% CO2. Varied concentrations of compounds Nos 2, 3, 4, 5 and 6, up to 20 times the IC50, are then added. The cytotoxicity is evaluated colorinnetrically with 3-(4,5-dimethylthiazol-2-yl)-2,5-diphenyltetrazolium bromide (MTT).
Increasing concentrations of compound No. 4 or No. 6 are applied to NIH3T3 cells expressing or not expressing P-gp. The cell survival is measured after 72 h and is expressed as a percentage. At 10 times the half-maximum-effect concentration, these two compounds are not toxic. Above this, the toxicity of compound No. 4 remains negligible, while that of compound No. 6 remains limited.

Data set [3] addresses T2, BCRP (Homo sapiens, UniProt Q9UNQ0).
T2 construct: expressed in transfected cells; host or cells: HEK-293 (ATCC CRL-1573), pcDNA3.1 expression vector (Invitrogen)
T2 sequence (Q9UNQ0 1-655): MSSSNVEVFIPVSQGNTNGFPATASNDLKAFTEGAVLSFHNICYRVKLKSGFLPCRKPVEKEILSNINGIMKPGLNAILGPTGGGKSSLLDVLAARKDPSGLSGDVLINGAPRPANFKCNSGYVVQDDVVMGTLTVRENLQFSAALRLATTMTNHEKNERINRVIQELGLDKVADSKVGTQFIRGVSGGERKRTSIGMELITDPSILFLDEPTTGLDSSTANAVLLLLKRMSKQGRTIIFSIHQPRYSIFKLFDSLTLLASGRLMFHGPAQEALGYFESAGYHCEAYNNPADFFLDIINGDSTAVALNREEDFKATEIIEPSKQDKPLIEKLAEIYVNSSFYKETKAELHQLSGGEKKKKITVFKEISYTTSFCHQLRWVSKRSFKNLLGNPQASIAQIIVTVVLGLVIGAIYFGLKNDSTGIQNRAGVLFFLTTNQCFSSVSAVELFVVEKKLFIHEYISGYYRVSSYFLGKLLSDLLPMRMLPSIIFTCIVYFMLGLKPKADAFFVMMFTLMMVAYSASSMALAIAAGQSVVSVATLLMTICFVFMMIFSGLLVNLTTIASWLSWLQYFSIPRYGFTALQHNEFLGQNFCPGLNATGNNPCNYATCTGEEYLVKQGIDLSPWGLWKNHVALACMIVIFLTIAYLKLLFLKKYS
The data set can be described thus: Flow cytometry, inhibition of mitoxantrone efflux in HEK-293 cells transfected with BCRP. The settings on record: 10 μM compound.
From the text: as §1, §2
(§3) The inhibitory effect of the compounds is quantified by measuring, by flow cytometry, the efflux of an anticancer drug transported by the pump under consideration, i.e. mitoxantrone for P-gp and BCRP and daunorubicin for MRP1. It is compared with that of the reference product, reversin 121. The products are tested at 10 μM, then at 2 μM for those which block at least 80% of the efflux of mitoxantrone, and for some, a more complete concentration range is tested so as to establish the concentration value producing 50% inhibition, IC50, as indicated in FIG. 3.

The target in data set [4] is T3, P-gp (Homo sapiens, UniProt P08183).
T3 construct: expressed in transfected cells; host or cells: NIH3T3 (ATCC CRL-1658), stably transfected with retroviral vector pHaMDR1/A
T3 sequence (P08183 whole entry): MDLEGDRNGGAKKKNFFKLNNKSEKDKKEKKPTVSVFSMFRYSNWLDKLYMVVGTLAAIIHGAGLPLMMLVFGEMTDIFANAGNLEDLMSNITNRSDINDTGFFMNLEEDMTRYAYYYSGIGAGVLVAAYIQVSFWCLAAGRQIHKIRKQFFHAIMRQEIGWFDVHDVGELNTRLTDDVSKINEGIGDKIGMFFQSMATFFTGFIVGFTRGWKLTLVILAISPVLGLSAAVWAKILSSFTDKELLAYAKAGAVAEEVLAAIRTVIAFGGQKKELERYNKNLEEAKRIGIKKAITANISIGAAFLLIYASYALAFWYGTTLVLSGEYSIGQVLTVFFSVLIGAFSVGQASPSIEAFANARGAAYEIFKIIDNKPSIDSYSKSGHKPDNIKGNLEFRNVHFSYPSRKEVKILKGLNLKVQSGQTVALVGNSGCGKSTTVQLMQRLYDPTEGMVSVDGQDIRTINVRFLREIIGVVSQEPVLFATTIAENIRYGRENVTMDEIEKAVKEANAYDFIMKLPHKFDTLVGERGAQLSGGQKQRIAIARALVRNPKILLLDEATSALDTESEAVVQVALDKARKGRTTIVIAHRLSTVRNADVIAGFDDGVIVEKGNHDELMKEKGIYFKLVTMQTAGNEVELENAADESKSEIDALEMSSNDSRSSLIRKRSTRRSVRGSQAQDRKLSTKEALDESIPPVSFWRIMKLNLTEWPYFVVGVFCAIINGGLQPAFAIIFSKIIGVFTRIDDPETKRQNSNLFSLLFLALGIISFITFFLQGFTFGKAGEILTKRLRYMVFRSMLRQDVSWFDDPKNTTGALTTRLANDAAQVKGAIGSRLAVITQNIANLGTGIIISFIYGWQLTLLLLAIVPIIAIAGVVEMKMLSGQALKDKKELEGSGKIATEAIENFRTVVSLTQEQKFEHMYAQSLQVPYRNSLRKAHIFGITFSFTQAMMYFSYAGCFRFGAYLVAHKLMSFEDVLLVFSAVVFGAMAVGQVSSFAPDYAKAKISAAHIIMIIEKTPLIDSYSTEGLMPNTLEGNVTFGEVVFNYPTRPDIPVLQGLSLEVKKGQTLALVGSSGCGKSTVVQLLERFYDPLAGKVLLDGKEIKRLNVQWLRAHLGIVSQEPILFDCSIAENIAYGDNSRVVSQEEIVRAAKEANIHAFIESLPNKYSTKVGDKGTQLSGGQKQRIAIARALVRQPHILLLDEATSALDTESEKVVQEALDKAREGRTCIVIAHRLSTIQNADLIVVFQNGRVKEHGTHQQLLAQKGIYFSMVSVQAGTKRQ
Briefly: Kinetics of inhibition of daunorubicin efflux produced by P-gp (mode of inhibition). The settings on record: Lineweaver & Burke double reciprocal representation. On the procedure:
FIGS. 6A and 6B show the kinetics of inhibition of daunorubicin efflux produced by P-gp, with compound No. 6. The intracellular daunorubicin fluorescence is measured in the presence of increasing concentrations of No. 6, respectively 0 (circles), 0.12 μM (triangles), 0.22 μM (squares), 0.44 μM (diamonds) and 10 μM (upward-pointing triangles), corresponding to 0, 25, 50, 75 and 100% efflux inhibition effectiveness. FIG. 6A: direct representation, FIG. 6B, Lineweaver & Burke double reciprocal representation.
The intracellular concentration of fluorescent daunorubicin is measured at increasing daunorubicin concentrations, in the presence or absence of fixed concentrations of 0, 0.12 μM, 0.22 μm, 0.44 μM and 10 μM of compound No. 6 corresponding to 0%, 25%, 50%, 75% and 100% efflux inhibition effectiveness according to FIG. 3.

Data set [5] concerns the target T3, P-gp. Briefly: Flow cytometry, inhibition of mitoxantrone efflux in NIH3T3 cells expressing P-gp.
From the text: as §1, §2, §3

For orientation: inhibition means how much of the control response was suppressed. Broadly, the IC50 is the point on the concentration scale where inhibition reaches its midpoint. Lower therefore signals higher potency.

Each structure is given as a SMILES string.

T1 sequence (P33527 whole entry): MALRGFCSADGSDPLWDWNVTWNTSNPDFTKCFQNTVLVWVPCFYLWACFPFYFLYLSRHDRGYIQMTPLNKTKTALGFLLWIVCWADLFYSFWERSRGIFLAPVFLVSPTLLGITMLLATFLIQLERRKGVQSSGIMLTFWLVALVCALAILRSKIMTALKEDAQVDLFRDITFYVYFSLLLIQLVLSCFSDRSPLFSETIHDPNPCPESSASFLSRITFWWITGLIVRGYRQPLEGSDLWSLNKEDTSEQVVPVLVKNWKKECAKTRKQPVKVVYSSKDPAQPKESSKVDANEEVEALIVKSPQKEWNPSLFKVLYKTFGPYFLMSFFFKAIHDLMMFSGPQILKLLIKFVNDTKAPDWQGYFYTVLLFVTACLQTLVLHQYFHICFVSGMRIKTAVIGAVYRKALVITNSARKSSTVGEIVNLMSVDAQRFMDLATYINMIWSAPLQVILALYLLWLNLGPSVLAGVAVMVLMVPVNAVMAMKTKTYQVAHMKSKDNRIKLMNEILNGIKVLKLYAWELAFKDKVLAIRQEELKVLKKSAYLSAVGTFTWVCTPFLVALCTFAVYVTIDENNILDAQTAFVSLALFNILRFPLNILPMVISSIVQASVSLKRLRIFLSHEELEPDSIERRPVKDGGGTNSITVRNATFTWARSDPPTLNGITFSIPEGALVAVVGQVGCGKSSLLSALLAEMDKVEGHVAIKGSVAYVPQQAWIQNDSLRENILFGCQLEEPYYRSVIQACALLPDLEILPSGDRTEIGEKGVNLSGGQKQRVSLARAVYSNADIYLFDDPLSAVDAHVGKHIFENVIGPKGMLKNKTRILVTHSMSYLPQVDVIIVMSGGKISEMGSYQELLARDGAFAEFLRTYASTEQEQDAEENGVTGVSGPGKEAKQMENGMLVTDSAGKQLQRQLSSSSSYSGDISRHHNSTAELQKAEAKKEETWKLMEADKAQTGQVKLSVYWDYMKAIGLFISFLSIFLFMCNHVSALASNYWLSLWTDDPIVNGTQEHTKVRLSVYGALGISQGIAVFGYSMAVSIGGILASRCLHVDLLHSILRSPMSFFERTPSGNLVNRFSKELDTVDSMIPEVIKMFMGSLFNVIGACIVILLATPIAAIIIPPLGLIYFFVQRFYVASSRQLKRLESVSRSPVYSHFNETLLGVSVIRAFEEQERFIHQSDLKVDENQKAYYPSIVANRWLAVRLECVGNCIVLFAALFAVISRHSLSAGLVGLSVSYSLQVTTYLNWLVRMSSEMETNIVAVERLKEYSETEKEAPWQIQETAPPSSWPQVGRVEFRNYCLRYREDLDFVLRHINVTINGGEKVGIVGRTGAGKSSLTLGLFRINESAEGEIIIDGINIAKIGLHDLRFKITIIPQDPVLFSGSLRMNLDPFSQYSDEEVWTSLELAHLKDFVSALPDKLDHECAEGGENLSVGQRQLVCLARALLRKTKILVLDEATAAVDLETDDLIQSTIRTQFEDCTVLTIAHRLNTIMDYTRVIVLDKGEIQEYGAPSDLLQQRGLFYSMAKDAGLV

Consider `CC(C)(C)OC(=O)[C@H](CCCCNC(=O)OCc1ccccc1)NC[C@@H]1C[C@@H](OCc2ccccc2)CN1C(=O)OC(C)(C)C` [No. 6, N^α-Boc-trans-L-4-Hyp(Bn)-ψ(CH2-NH)-L-Lys(Z)-OtBu], for which the inhibition at 1 h, 10 µM in data set [1] was under 10%; in data set [5] (human, probe mitoxantrone, 10 μM compound, according to FIG. 3, read-out: efflux inhibition effectiveness), 100%. In addition, the cytotoxicity result is given as “limited” in data set [2] (above 10 times the half-maximum-effect concentration) and “not toxic” in data set [2] (at 10 times the half-maximum-effect concentration). Also, the “% pump inhibition at 10 μM of compound, BCRP” value in data set [3] is listed as 42.3 ± 0.8%. In data set [4], the mechanism of inhibition entry is “noncompetitive”. Besides, the “IC50 for P-gp compared with that of reversin 121” value in data set [5] is on record as “seven times better”. For the same compound, the “% pump inhibition at 10 μM of compound, P-gp” value in data set [5] (10 μM compound, mitoxantrone efflux) is given as 106.9 ± 23.0%. The inhibition at 1 h, 0.12 µM in data set [5] (human, probe mitoxantrone, 0.12 μM compound, according to FIG. 3, read-out: efflux inhibition effectiveness) turned out to be 25%. For the same compound, the inhibition at 1 h, 0.44 µM in data set [5] (human, probe mitoxantrone, 0.44 μM compound, according to FIG. 3, read-out: efflux inhibition effectiveness) was determined as 75%. Moreover, the inhibition at 1 h, 0.22 μM in data set [5] (human, probe mitoxantrone, 0.22 μm compound, according to FIG. 3, read-out: efflux inhibition effectiveness) turned out to be 50%. In data set [5] (mitoxantrone efflux, mathematical adjustment of experimental points), the midpoint of inhibition, the IC50, lay at 220 ± 30 nM.
